{"source": "paper PMC8074287", "about": "“Analgesic and Anticancer Activity of Benzoxazole Clubbed 2-Pyrrolidinones as Novel Inhibitors of Monoacylglycerol Lipase” (Molecules, 2021)", "key": {"[1]": {"biological_target": "T1, hMAGL (Homo sapiens, UniProt Q99685)", "T1 sequence (Q99685 1-303)": "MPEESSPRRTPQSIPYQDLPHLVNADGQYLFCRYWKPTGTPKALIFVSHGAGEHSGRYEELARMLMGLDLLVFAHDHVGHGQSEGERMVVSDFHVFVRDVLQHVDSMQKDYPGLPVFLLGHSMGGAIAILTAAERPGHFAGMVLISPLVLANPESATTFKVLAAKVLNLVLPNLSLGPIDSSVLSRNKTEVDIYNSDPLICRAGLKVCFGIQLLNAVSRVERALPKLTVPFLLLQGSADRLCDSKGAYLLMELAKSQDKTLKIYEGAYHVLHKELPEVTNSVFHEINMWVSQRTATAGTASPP", "experiment": "Human MAGL inhibition assay (Cayman's assay kit)"}, "[2]": {"biological_target": "T2, hFAAH (Homo sapiens, UniProt O00519)", "T2 sequence (O00519 1-579)": "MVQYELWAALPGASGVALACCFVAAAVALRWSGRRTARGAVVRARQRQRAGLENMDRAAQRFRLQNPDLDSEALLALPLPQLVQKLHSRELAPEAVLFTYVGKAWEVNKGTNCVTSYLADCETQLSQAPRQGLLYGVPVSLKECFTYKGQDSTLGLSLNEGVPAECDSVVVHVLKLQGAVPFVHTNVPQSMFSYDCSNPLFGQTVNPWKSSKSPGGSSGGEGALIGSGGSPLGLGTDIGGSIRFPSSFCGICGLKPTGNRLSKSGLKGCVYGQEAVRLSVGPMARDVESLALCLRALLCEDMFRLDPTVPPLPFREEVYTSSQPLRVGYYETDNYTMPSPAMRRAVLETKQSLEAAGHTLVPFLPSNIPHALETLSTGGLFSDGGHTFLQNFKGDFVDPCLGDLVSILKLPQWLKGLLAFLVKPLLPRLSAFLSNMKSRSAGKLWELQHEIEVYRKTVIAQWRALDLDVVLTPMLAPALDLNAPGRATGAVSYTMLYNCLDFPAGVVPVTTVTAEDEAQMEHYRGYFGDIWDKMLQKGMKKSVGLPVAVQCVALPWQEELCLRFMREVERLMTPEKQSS", "experiment": "Human FAAH inhibition assay (Cayman's assay kit)", "settings": "IC50, mean ± SEM (n = 3)"}, "[3]": {"test_system": "MAGL", "settings": "cited from earlier work"}, "[4]": {"test_system": "FAAH", "design": "method as in PMID 15456244", "settings": "read-out: FAAH IC50, value reported; cited from earlier work"}, "[5]": {"test_system": "formalin-induced nociception", "experiment": "Formalin-induced analgesic (nociception) test", "type": "in vivo, Male Wistar rats", "settings": "100 mg/kg i.p., 30 min before formalin", "excerpt": "The formalin-induced analgesic test is an extensively acknowledged animal nociception model. In order to evaluate both central and peripheral effects of the compound (20), formalin-induced nociception model was selected for analgesic activity. The formalin induced behavioral response comprises two typical phases, stage I and II. Stage I persists up to five minutes after formalin injection and is characterized by acute pain with vigorous licking and biting of the injected site. Stage I consists the action formalin on afferent C-fiber nociceptors. While Stage II starts 10–30 min after formalin injection and persists till 60 min, characterized by periodic licking and biting of the injected site. Stage II imitates the action of central sensitization of the spinal dorsal horn neurons.\nFigure 5 Formalin-induced analgesic test; a dose of the test compound 20 (5, 10, 30, and 50 mg/kg, p.o, suspended in 0.5% CMC) was administered 4 h before formalin injection (50 µL, 2.5%). Reference drug, gabapentin (100 mg/kg, i.p, dissolved in 0.9% normal saline) was injected 30 min before formalin injection. Total paw licking and biting duration, Stage I (white bar, 0–5 min) and stage II (black bar, 10–30 min) was recorded as a measure of pain behavior. Data is represented as mean ± SEM from a group of 10 animals. * p < 0.05, ** p < 0.01, p > 0.05 (NS, nonsignificant) vs. control (vehicle). GBP: Gabapentin; D5, D10, D30, andD50 are the dose concentrations of test compound 20.\nMale Wistar rats (180–200 g) were obtained with the permission of IAEC (proposal number 1048) from Jamia Hamdard, New Delhi, India. The results of test compound 20 and reference drug, Gabapentin (GBP), were statistically compared with the control group."}, "[6]": {"settings": "earlier work of the authors' group"}}, "note": "Like-named read-outs stand apart in the source and are kept apart here.", "data": [{"smiles": "O=C1CC(c2nc3ccccc3o2)CN1c1ccc(F)c(Cl)c1", "note": "(centres unmarked) [Compound 16, 4-(Benzo[d]oxazol-2-yl)-1-(3-chloro-4-fluorophenyl)pyrrolidin-2-one]", "values": [{"measurement": "IC50", "setting": "[1]", "result": "34 ± 1.7", "unit": "nM"}, {"measurement": "melting point", "result": "187 to 189", "unit": "°C"}, {"measurement": "IC50", "setting": "[2]", "result": "25000 ± 2300", "unit": "nM"}]}, {"smiles": "COc1nn(-c2ccc(NC(=O)OCc3ccccc3)c(C)c2)c(=O)o1", "note": "[CAY10499, reference compound]", "values": [{"measurement": "IC50", "setting": "[1]; read-out: hMAGL, IC50, mean ± SEM (n = 3)", "result": "415 ± 3.2", "unit": "nM"}, {"measurement": "IC50", "setting": "[3]", "result": 144, "unit": "nM"}]}, {"smiles": "Cc1ccc(N2CC(c3nc4ccccc4o3)CC2=O)cc1", "note": "(centres unmarked) [Compound 14, 4-(Benzo[d]oxazol-2-yl)-1-(p-tolyl)pyrrolidin-2-one]", "values": [{"measurement": "IC50", "setting": "[1]", "result": "72000 ± 2100", "unit": "nM"}, {"measurement": "melting point", "result": "164 to 166", "unit": "°C"}]}, {"smiles": "O=C1CC(c2nc3ccccc3o2)CN1c1ccccc1", "note": "(centres unmarked) [Compound 12, 4-(Benzo[d]oxazol-2-yl)-1-phenylpyrrolidin-2-one]", "values": [{"measurement": "IC50", "setting": "[1]", "result": "> 100000", "unit": "nM"}, {"measurement": "melting point", "result": "148 to 150", "unit": "°C"}]}, {"smiles": "COc1ccc(N2CC(c3nc4ccccc4[nH]3)CC2=O)cc1", "note": "(centres unmarked) [compound 25]", "values": [{"measurement": "IC50", "setting": "[3]; [6]", "result": 9.4, "unit": "nM"}]}, {"smiles": "O=C(Nc1cccc(-c2ccccc2)c1)OC1CCCCC1", "note": "[URB602]", "values": [{"measurement": "IC50", "setting": "[3]", "result": 28000, "unit": "nM"}]}, {"smiles": "O=C(N1CCN(C(c2ccc(F)cc2)c2ccc(F)cc2)CC1)n1cncn1", "note": "[SAR629]", "values": [{"measurement": "IC50", "setting": "[3]", "result": 1.1, "unit": "nM"}]}, {"smiles": "O=C(N1CCC(C(c2ccc3c(c2)OCO3)c2ccc3c(c2)OCO3)CC1)n1cncn1", "note": "[JJKK-048, {4-[bis-(benzo[d][1,3]dioxol-5-yl)methyl]-piperidin-1-yl}(1H-1,2,4-triazol-1-yl)methanone]", "values": [{"measurement": "IC50", "setting": "[3]", "result": 0.363, "unit": "nM"}, {"measurement": "selectivity for MAGL over FAAH", "setting": "[3]", "result": "more than 10,000 fold"}]}, {"smiles": "O=C1CC(c2nc3ccccc3o2)CN1Cc1ccccc1", "note": "(centres unmarked) [Compound 11, 4-(Benzo[d]oxazol-2-yl)-1-benzylpyrrolidin-2-one]", "values": [{"measurement": "IC50", "setting": "[1]", "result": "> 100000", "unit": "nM"}, {"measurement": "melting point", "result": "160 to 162", "unit": "°C"}]}, {"smiles": "O=C1CC(c2nc3ccccc3o2)CN1c1ccc(O)cc1", "note": "(centres unmarked) [Compound 17, 4-(Benzo[d]oxazol-2-yl)-1-(4-hydroxyphenyl)pyrrolidin-2-one]", "values": [{"measurement": "IC50", "setting": "[1]", "result": "62000 ± 2700", "unit": "nM"}, {"measurement": "melting point", "result": "242 to 245", "unit": "°C"}]}, {"smiles": "O=C(Oc1ccc([N+](=O)[O-])cc1)N1CCC(C(O)(c2ccc3c(c2)OCO3)c2ccc3c(c2)OCO3)CC1", "note": "[JZL184]", "values": [{"measurement": "IC50", "setting": "[3]", "result": "[…]"}]}, {"smiles": "O=C1CC(c2nc3ccccc3o2)CN1c1ccc(Cl)cc1", "note": "(centres unmarked) [Compound 15, 4-(Benzo[d]oxazol-2-yl)-1-(4-chlorophenyl)pyrrolidin-2-one]", "values": [{"measurement": "IC50", "setting": "[1]", "result": "65 ± 3.2", "unit": "nM"}, {"measurement": "melting point", "result": "174 to 176", "unit": "°C"}, {"measurement": "IC50", "setting": "[2]", "result": "28000 ± 1800", "unit": "nM"}]}, {"smiles": "O=C(OC(C(F)(F)F)C(F)(F)F)N1CCC(C(O)(c2ccc3c(c2)OCO3)c2ccc3c(c2)OCO3)CC1", "note": "[KML29]", "values": [{"measurement": "IC50", "setting": "[3]", "result": 3.6, "unit": "nM"}, {"measurement": "selectivity for MAGL over FAAH", "setting": "[3]", "result": "more than 10,000 fold"}]}, {"smiles": "NC(=O)c1cccc(-c2cccc(OC(=O)NC3CCCCC3)c2)c1", "note": "[URB597]", "values": [{"measurement": "IC50", "setting": "[4]", "result": 4.6, "unit": "nM"}]}, {"smiles": "Cc1ncccc1-c1cc(F)cc(N2C[C@H](N3CCN(c4ncccn4)CC3)CC2=O)c1", "note": "[R(3t)]", "values": [{"measurement": "IC50", "setting": "[3]", "result": 3.6, "unit": "nM"}]}, {"smiles": "Cc1ccccc1N1CC(c2nc3ccccc3o2)CC1=O", "note": "(centres unmarked) [Compound 13, 4-(Benzo[d]oxazol-2-yl)-1-(o-tolyl)pyrrolidin-2-one]", "values": [{"measurement": "IC50", "setting": "[1]", "result": "85000 ± 1500", "unit": "nM"}, {"measurement": "melting point", "result": "162 to 164", "unit": "°C"}]}, {"smiles": "O=C(Cn1nnc2ccccc21)Nc1ccc(-c2nc3ccccc3s2)cc1", "note": "[ZINC24092691 analogue]", "values": [{"measurement": "IC50", "setting": "[3]; [6]", "result": 6.5, "unit": "nM"}]}, {"smiles": "O=C(O[C@H](CO)C(F)(F)F)N1C[C@@H]2C(c3ccn(-c4ccc(F)cc4)n3)[C@@H]2C1", "note": "(some centres unmarked) [PF-06795071]", "values": [{"measurement": "IC50", "setting": "[3]", "result": 3, "unit": "nM"}]}, {"smiles": "CCCCNC(=O)Oc1ccc(C2=NCCS2)cc1", "note": "[SPB01403]", "values": [{"measurement": "IC50", "setting": "[3]", "result": 31000, "unit": "nM"}]}, {"smiles": "O=C(Cn1nnc2ccccc21)Nc1ccc(-c2nc3ccccc3s2)cc1", "note": "[ZINC24092691]", "values": [{"measurement": "IC50", "setting": "[3]; [6]", "result": 10, "unit": "nM"}]}, {"smiles": "NCC1(CC(=O)O)CCCCC1", "note": "[GBP, Gabapentin, reference compound]", "values": [{"measurement": "paw licking and biting, Stage II", "setting": "[5]; vs control", "result": "significant reduction of paw licking and biting"}, {"measurement": "analgesic effect, Stage I (acute nociception)", "setting": "[5]; vs control (0.5% CMC)", "result": "little analgesic effects"}]}, {"smiles": "O=C(N1CCN(C(c2ccccc2)c2ccccc2)CC1)n1nnc2ccccc21", "note": "[ML30]", "values": [{"measurement": "IC50", "setting": "[3]", "result": 0.54, "unit": "nM"}]}, {"smiles": "COc1ccc(N2CC(c3nc4ccccc4o3)CC2=O)cc1", "note": "(centres unmarked) [Compound 18, 4-(Benzo[d]oxazol-2-yl)-1-(4-methoxyphenyl)pyrrolidin-2-one]", "values": [{"measurement": "IC50", "setting": "[1]", "result": "42 ± 1.5", "unit": "nM"}, {"measurement": "melting point", "result": "177 to 179", "unit": "°C"}, {"measurement": "IC50", "setting": "[2]", "result": "37000 ± 2200", "unit": "nM"}]}]}
